Measured values taken from patent US6545043B1 (priority 1997, dated 2003).
Values after ≈ are worked out from the molar mass of the structure shown. “Also recorded” adds a separate entry of the source.

How the values were obtained:
[1] = test system: adult house fly (Musca domestica); settings: in vivo
[2] = test system: adult house fly (Musca domestica); assay: whole plant or invertebrate; settings: topical, 24 h, read-out: Percentage mortality at 24 h
[3] = test system: lesser grain borer (Rhizopertha dominica); settings: in vivo
[4] = test system: Drugstore beetle, Stegobium paniceum; settings: in vivo; cited from earlier work
[5] = test system: Saw-toothed grain weevil, Oryzaephilus surinamensis; settings: in vivo; cited from earlier work
[6] = test system: Bean weevil, Acanthoscelides obtectus; settings: in vivo; cited from earlier work
[7] = test system: Confused flour beetle, Tribolium confusum; settings: in vivo; cited from earlier work
[8] = test system: Granary weevil, Sitophilus granarius; settings: in vivo; cited from earlier work
[9] = test system: brine shrimp (Artemia franciscana); assay: whole plant or invertebrate
[10] = test system: adult house fly (Musca domestica); settings: in vivo; remark: listed apart in the source
[11] = test system: root-knot nematode (RKN) (Meloidogyne incognita) eggs; settings: in vivo
[12] = test system: five stored products pests (granary weevil, drugstore beetle, confused flour beetle, bean weevil, saw-toothed grain beetle); settings: in vivo; cited from earlier work
[13] = test system: soil microbial activity
[14] = test system: house fly larvae (M. domestica); settings: in vivo; cited from earlier work

With C=CC(C#N)OC(=O)CC (stereo not shown) [CHP-Pro, CHP propionate] the LC50 [1] was 0.66 µg/mL (≈ 4.74 µM), the “times less effective than dichlorvos” value [1] was “about 60 times” and the mortality at 9.7 µg/fly [2] was 0%. For the same compound, the mortality at 97 µg/fly [2] was 100%, the LC50 [3] was 0.70 µg/mL (≈ 5.03 µM) and the “times less effective than dichlorvos” value [3] was “about 2.5 times”.
With CC(C)(O)C#N [DMK-CNOH, dimethyl ketone cyanohydrin] the LC50 [1] was <0.07 µg/mL and the LC50 [3] was 0.25 µg/mL (≈ 2.94 µM).
C=CC1CNC(=S)O1 (stereo not shown) [Goitrin, goitrin] showed a mortality at 1 µg/fly [2] of 5% and a mortality at 100 µg/fly [2] of 5%.
In the case of C=CC#N [acrylonitrile], the “LC50 for 6 h” value [4] is listed as 1.7 mg/L, the “LC50 for 6 h” value [5] is listed as 0.8 mg/L and the “LC50 for 6 h” value [6] is listed as 1.1 mg/L. The “LC50 for 6 h” value [7] was 3.0 mg/L and the “LC50 for 6 h” value [8] was 2.0 mg/L.
In the case of S=C=S [carbon disulfide], the “LC50 for 6 h” value [4] is given as 42.0 mg/L, the “LC50 for 6 h” value [5] is given as 40.0 mg/L and the “LC50 for 6 h” value [6] is given as 29.0 mg/L. The “LC50 for 6 h” value [7] was 75.0 mg/L and the “LC50 for 6 h” value [8] was 43.0 mg/L.
With O=C(O)C=Cc1ccccc1 [cinnamic acid, reference compound] the mortality at 1 µg/fly [2] was 0%, the mortality at 10 µg/fly [2] was 0% and the mortality at 100 µg/fly [2] was 0%. It also gave a mortality at 1 ppm [9] of 30%, a mortality at 10 ppm [9] of 45% and a mortality at 100 ppm [9] of 100%. The “effectiveness as topical pesticide” value [10] was “not an effective biopesticide”.
N#CC(O)/C=C/c1ccccc1 (stereo not shown) [cinnamyl cyanohydrin] showed a mortality at 6 µg/fly [2] of 9%, a mortality at 50 µg/fly [2] of 100% and a mortality at 1 ppm [9] of 25%. The mortality at 10 ppm [9] was 15%, the mortality at 100 ppm [9] was 100% and the “effectiveness as topical pesticide” value [10] was “relatively weak”.
For CC(C)=CCCC(C)CC(=O)O (stereo not shown) [citronellic acid, reference compound], the mortality at 1 µg/fly [2] was 0%, the mortality at 10 µg/fly [2] was 91% and the mortality at 100 µg/fly [2] was 100%. It also gave a mortality at 1 ppm [9] of 40%, a mortality at 10 ppm [9] of 65% and a mortality at 100 ppm [9] of 100%.
With CC(C)=CCCC(C)CC(O)C#N (stereo not shown) [citronellyl cyanohydrin] the mortality at 6 µg/fly [2] was 14%, the mortality at 50 µg/fly [2] was 10% and the “effectiveness as topical pesticide” value [10] was “not active”.
With CC(C)=CCC/C(C)=C/C(O)C#N (stereo not shown) [citryl cyanohydrin] the mortality at 1 µg/fly [2] was 8%, the mortality at 1 ppm [9] was 0% and the mortality at 10 ppm [9] was 0%. For the same compound, the mortality at 100 ppm [9] was 87%, the “Percentage mortality at 24 h” value [10] was 9% and the “effectiveness as topical pesticide” value [10] was “not active”.
With COP(=O)(OC)OC=C(Cl)Cl [dichlorvos, reference compound] the mortality at 1 µg/fly [2] was 95% and the LC50 [3] was 0.29 µg/mL (≈ 1.31 µM).
In the case of C1CO1 [ethylene oxide], the “LC50 for 6 h” value [4] is listed as 9.0 mg/L, the “LC50 for 6 h” value [5] is listed as 4.0 mg/L and the “LC50 for 6 h” value [6] is listed as 10.5 mg/L. The “LC50 for 6 h” value [7] was 27.5 mg/L and the “LC50 for 6 h” value [8] was 13.5 mg/L.
In the case of N#CC(O)c1ccccc1 (stereo not shown) [mandelonitrile], the “percent hatch, highest in the 22-day period” value [11] is reported as ≤ 29.7%.
For CBr [methyl bromide], the “LC50 values, range over five stored products pests” value [12] is given as 4.2 to 9.2 mg/L, the “LC50 for 6 h” value [4] is given as 4.4 mg/L and the “LC50 for 6 h” value [5] is given as 4.4 mg/L. The “Severity of depression of microbial activity” value [13] was “Slightly Depressed; also recorded: severe depression; also recorded: Severely Depressed”, the “LC50 for 6 h” value [6] was 4.2 mg/L and the “LC50 for 6 h” value [7] was 9.2 mg/L. The “LC50 for 6 h” value [8] was 4.8 mg/L.
In the case of CC1(C)C(C=C(Cl)Cl)C1C(=O)OCc1cccc(Oc2ccccc2)c1 (stereo not shown) [permethrin], the mortality [14] is listed as “roughly 98%”.
Compound C=C(C)[C@H]1Cc2c(ccc3c2O[C@@H]2COc4cc(OC)c(OC)cc4[C@@H]2C3=O)O1 [rotenone, reference compound] has a mortality at 1 ppm [9] of 100%.
Compound “methyl ethyl ketone cyanohydrin [MEK-CNOH]” has an LC50 [1] of 0.09 µg/mL and an LC50 [3] of 0.27 µg/mL.
